According to US7304074B2, “Substituted 1,5-naphthyridine azolinones” (Hoffmann-La Roche Inc., priority 2005, dated 2007):

Columns and labels:
Assay type in all cases: biochemical
CDK2 = CDK2 (Homo sapiens, UniProt P24941); experiment: CDK2 kinase inhibition (selectivity)
CDK1/Cyclin B = CDK1/Cyclin B (Homo sapiens, UniProt P06493); experiment: CDK1/Cyclin B kinase assay (FlashPlate or HTRF); settings: recombinant human CDK1/Cyclin B, Rb substrate; Ki=IC50/(1+[S]/Km)
Method: To determine inhibition of CDK1 activity, either FlashPlate™ (NEN™-Life Science Products) assay or HTRF assay was performed. Both types of kinase assays were carried out using recombinant human CDK1/Cyclin B complex. GST-cyclinB (GST-cycB) and CDK1 cDNA clones in baculovirus vectors were provided by Dr. W. Harper at the Baylor College of Medicine, Houston, Tex. Proteins were co-expressed in High Five™ insect cells and the complex was purified on glutathione Sepharose resin (Pharmacia, Piscataway, N.J.) as previously described (Harper, J. W. et al. Cell 1993, 75, 805-816). A 6×-Histidine tagged truncated form of retinoblastoma (Rb) protein (amino acid 386-928) was used as the substrate for the CDK1/Cyclin B assay (the expression plasmid was provided by Dr. Veronica Sullivan, Department of Molecular Virology, Roche Research Centre, Welwyn Garden City, United Kingdom). The Rb protein is a natural substrate for phosphorylation by CDK1 (see Herwig and Strauss Eur. J. Biochem. Vol. 246 (1997) pp. 581-601 and the references cited therein). The expression of the 62 Kd protein was under the control of an IPTG inducible promoter in an M15 E. coli strain. Cells were lysed by sonication and purification was carried out by binding lysates at pH 8.0 to a Ni-chelated agarose column pretreated with 1 mM imidazole. The resin was then washed several times with incrementally decreasing pH buffers to pH 6.0, and eluted with 500 mM imidazole. Eluted protein was dialysed against 20 mM HEPES pH 7.5, 30% glycerol, 200 mM NaCl, and 1 mM DTT. Purified Rb fusion protein stocks were quantitated for protein concentration, aliquoted, and stored at −70° C.
For the FlashPlate kinase assay, 96-well FlashPlates were coated with Rb protein at 10 μg/ml, using 100 μl per well. Plates were incubated at 4° C. overnight or at room temperature for 3 hours on a shaker. To control for nonspecific phosphorylation, one row of wells was coated with 100 μl/well coating buffer (20 mM HEPES, 0.2 M NaCl). Plates were then washed twice with wash buffer (0.01% Tween 20 in phosphate-buffered saline). Compounds to be tested (“test compounds”) were added to the wells at 5×final concentration. Reactions were initiated by immediate addition of 40 μl reaction mix (25 mM HEPES, 20 mM MgCl2, 0.002% Tween 20, 2 mM DTT, 1 μM ATP, 3.3 nM 33P-ATP) and a sufficient amount of enzyme to give counts that were at least 10-fold above background. Plates were incubated at room temperature on a shaker for 30 minutes. Plates were washed four times with the wash buffer, sealed, and counted on the TopCount scintillation counter (Packard Instrument Co., Downers Grove, Ill.). The percent inhibition of Rb phosphorylation, which is a measure of the inhibition of CDK1 activity, was determined according to the following formula:
[formula] where “test compound” refers to the average counts per minute of the test duplicates, “nonspecific” refers to the average counts per minute when no CDK1/Cyclin B, etc., was added, and “total” refers to the average counts per minute when no compound was added. […] The value of the inhibitor constant Ki is calculated by the following: Ki=IC50/(1+[S]/Km), where [S] is the ATP concentration and Km is Michaelis constant.
The Homogeneous Time Resolved Fluorescence (HTRF) kinase assay was carried out in 96-well polypropylene plates (BD Biosciences, Bedford, Mass.). […]

CDK4 = CDK4 (Homo sapiens, UniProt P11802); experiment: CDK4 kinase inhibition (selectivity)
CDK4, sequence (P11802 whole entry, species assumed): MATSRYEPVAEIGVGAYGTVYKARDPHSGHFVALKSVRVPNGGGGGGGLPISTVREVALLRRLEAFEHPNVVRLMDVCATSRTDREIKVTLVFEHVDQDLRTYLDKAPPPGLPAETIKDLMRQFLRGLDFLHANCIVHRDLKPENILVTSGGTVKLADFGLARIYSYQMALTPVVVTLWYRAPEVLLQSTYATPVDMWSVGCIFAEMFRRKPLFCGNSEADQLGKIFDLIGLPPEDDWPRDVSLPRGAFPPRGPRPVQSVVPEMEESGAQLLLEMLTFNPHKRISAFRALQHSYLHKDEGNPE
CDK4, sequence (P24385 whole entry partner, species assumed): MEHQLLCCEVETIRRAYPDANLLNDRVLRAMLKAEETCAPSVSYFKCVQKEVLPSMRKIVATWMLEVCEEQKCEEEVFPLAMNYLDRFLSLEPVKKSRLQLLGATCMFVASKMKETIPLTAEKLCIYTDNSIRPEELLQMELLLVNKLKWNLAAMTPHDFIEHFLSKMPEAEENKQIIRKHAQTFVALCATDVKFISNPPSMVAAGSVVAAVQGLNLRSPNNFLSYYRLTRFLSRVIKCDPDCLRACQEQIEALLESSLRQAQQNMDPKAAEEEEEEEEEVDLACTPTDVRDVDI

CDK1/Cyclin B, sequence (P06493 whole entry, the tested form may be a part): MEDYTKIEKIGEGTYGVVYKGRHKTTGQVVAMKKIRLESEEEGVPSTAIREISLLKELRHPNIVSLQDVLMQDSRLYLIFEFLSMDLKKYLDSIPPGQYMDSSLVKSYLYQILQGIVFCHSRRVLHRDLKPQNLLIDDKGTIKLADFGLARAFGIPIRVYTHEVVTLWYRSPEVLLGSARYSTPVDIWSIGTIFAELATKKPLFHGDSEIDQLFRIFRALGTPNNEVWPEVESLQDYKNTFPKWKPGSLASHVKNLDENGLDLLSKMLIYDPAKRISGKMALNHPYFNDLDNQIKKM
CDK1/Cyclin B, sequence (P14635 whole entry partner, the tested form may be a part): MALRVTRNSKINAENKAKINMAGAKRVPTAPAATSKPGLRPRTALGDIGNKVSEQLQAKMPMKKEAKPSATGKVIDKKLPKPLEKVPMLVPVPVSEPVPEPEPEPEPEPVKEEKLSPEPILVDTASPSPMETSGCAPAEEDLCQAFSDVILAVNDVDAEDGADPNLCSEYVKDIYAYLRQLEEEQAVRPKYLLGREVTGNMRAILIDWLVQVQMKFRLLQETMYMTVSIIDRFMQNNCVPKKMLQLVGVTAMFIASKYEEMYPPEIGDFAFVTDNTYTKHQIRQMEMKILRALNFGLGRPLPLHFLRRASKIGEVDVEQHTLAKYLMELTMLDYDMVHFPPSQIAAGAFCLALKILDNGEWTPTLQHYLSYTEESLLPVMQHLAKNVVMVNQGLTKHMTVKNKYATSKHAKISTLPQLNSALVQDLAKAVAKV

| SMILES | Ki (CDK2) | Ki (CDK1/Cyclin B) | Ki (CDK4) |
| --- | --- | --- | --- |
| CC(C)Oc1c(C#N)cnc2ccc(/C=C3\SC(NCc4cccs4)=NC3=O)nc12 [Example 4, 4-Isopropoxy-6-{4-oxo-2-[(thiophen-2-ylmethyl)-amino]-4H-thiazol-5-ylidenemethyl}-[1,5]naphthyridine-3-carbonitrile] | 554 nM | 47 nM | > 10000 nM |
| CC(C)Oc1c(C#N)cnc2ccc(/C=C3\SC(NCc4ccccc4Cl)=NC3=O)nc12 [Example 2] | 610 nM | 150 nM | > 10000 nM |
| CC(C)Oc1c(C#N)cnc2ccc(/C=C3\SC(N[C@@H]4C[C@H]4c4ccccc4)=NC3=O)nc12 [Example 3, 4-Isopropoxy-6-[4-oxo-2-(2-phenyl-cyclopropylamino)-4H-thiazol-5-ylidenemethyl]-[1,5]naphthyridine-3-carbonitrile] | 351 nM | 78 nM | > 10000 nM |
| CC(C)Oc1c(C#N)cnc2ccc(/C=C3\SC(N)=NC3=O)nc12 [Example 1, 6-(2-Amino-4-oxo-4H-thiazol-5-ylidenemethyl)-4-isopropoxy-[1,5]naphthyridine-3-carbonitrile] | 18 nM | 8 nM | > 10000 nM |
| Cc1cccc(Cl)c1CNC1=NC(=O)/C(=C/c2ccc3ncc(C#N)cc3n2)S1 [Example 17, 6-[2-(2-Chloro-6-methyl-benzylamino)-4-oxo-4H-thiazol-5-ylidenemethyl]-[1,5]naphthyridine-3-carbonitrile] | > 10000 nM | 539 nM | – |
